# Laboratory results published in patent US20070031514A1, “Use of isoindolinone derivatives as insecticides” (priority 2003, published 2007).
compound,measurement,value
"Cc1cc(C(F)(C(F)(F)F)C(F)(F)F)ccc1N1C(=O)c2cccc(Cl)c2C1NC(C)(C)CS(C)(=O)=O (stereo not shown) [Synthesis Example 2, 4-chloro-3-(2-methanesulfonyl-1,1-dimethylethylamino)-2-[2-methyl-4-(1,2,2,2-tetrafluoro-1-trifluoromethylethyl)phenyl]-2,3-dihydroisoindol-1-one]",melting point,154 to 156 °C
